# Measurements: patent US20070141146A1, “Novel compositions” (SMITHKLINE BEECHAM PHARMCO PUERTO RICO INCORPORATE, priority 2003, published 2007)
# Assay: pH dependent solubility of Compound A
# Assay type: physicochemical
# Source text: The pH dependent solubility and potential rapid release in the stomach of Compound A causes difficulties in the formulation or oral dosage forms. It is desirable that release is controlled to take place over a period of hours. Such a formulation would require dosing only once a day, and this is likely to improve patient compliance.
structure (smiles),measurement,setting,value
"CN(CCOc1ccc(CC2SC(=O)NC2=O)cc1)c1ccccn1 (centres unmarked) [Compound A, 5-[4-[2-(N-methyl-N-(2 pyridyl)amino)ethoxy]benzyl]thiazolidine-2,4-dione]",solubility,"aqueous buffer, pH 7, near neutral pH of the small intestine",~80 µg/mL
same,solubility,"simulated gastric fluid, pH 2, acidic regions associated with the stomach",~5000 µg/mL
